Results reported in patent US10869922B2 (priority 2016, dated 2020).

Tests used:
[1] = test system: DC and CD8+T lymphocytes from OT-1 transgenic mouse; assay: DC/T lymphocyte co-culture experiment; assay type: cell-based
Excerpt: Co-culture DC stimulated by high NaCl concentration and OVA antigen in vitro and CFSE-labeled CD8+T lymphocytes from OT-1 transgenic mouse for 2-3 days, observe the formation of CLUSTER under white light of the microscope, detect the proliferation of CFSE-labeled CD8+T lymphocytes by flow cytometry, and detect the secretion of IL2 in the collected culturesupernatant by ELISA.

DC = assay: Immunofluorescence co-localization experiment; assay type: cell-based, mouse; conditions: DC treated by high NaCl concentration, FIG. 10d
Excerpt: Immunofluorescence co-localization experiment: the experimental group, ibid. Fix and permeabilize DC stimulated by high NaCl concentration and fluorescent labeled OVA in vitro, and stain with organelle fluorescent protein markers of proteasome and lysosome, and observe under the confocal microscopy.

[2] = DC treated by high NaCl concentration and OVA, co-culture 2-3 days, FIGS. 10a, b and c

Question: With `[Cl-].[Na+]` [NaCl, sodium chloride] as the compound, how does the “proliferation of specific CD8+T lymphocytes” value [1, 2] read?
Answer: induce

Question: And the “secretion of IL2” value [1, 2]?
Answer: induce

Question: What about the “cross antigen presentation of DC” value ([1]; high NaCl concentration, FIG. 10) of the same compound?
Answer: significantly improve

Question: What about the “degradation route of OVA in DC” value (DC) of the same compound?
Answer: mostly degraded by proteasome rather than lysosome
